Data published in article PMC11855827, “High-Throughput Screening of Five Compound Libraries for Anthelmintic Activity and Toxicity Leads to the Discovery of Two Flavonoid Compounds” (International Journal of Molecular Sciences, 2025).
Read-outs that look alike come from different tables or passages of the source.

Tested on: C. elegans
Test: microbe, parasite or virus in culture
Details: Caenorhabditis elegans
[1] = 0 h, read-out: Percentage of motility inhibition 0 h, Table S2, C. elegans SS assay, 110 μM, 0 h, averages of 4 data points
[2] = 24 h, read-out: Percentage of motility inhibition 24 h, Table S2, C. elegans SS assay, 110 μM, 24 h, averages of 4 data points

Molecule Nc1nc(=O)n([C@@H]2CS[C@H](CO)O2)cc1F [Emtricitabine] has an inhibition at 110 µM [1] of 26% and an inhibition at 110 µM [2] of 32%.

In the case of CC(=O)O[C@@H]1C[C@]23C4=CC[C@@]5(C)[C@H](C(=O)O)[C@@](C)([C@H](C)C(C)C)CC[C@]5(C)[C@H]4CC[C@H]2[C@@](C)(COC3O)[C@H]1O[C@@H]1O[C@H](CO)[C@@H](O)[C@H](O)[C@H]1O (stereo partly shown) [Enfumafungin], the inhibition at 110 µM [1] is reported as 0% and the inhibition at 110 µM [2] is reported as 60%.

C=C(C)[C@@H]1CC[C@]2(C(=O)O)CC[C@]3(C)[C@H](CC[C@@H]4[C@@]5(C)CC[C@@H](O)C(C)(C)[C@@H]5CC[C@]43C)[C@@H]12 [Epibetulinic acid] showed an inhibition at 110 µM [1] of 14% and an inhibition at 110 µM [2] of 17%.

CC(=O)O[C@@H]1C[C@H]2C(C)(C)C(=O)C=C[C@]2(C)[C@H]2CC[C@@]3(C)[C@H](c4ccoc4)C(=O)[C@H]4O[C@]43[C@@]21C [Epoxyazadiradione] gave an inhibition at 110 µM [1] of 19% and an inhibition at 110 µM [2] of 47%.

C[C@@H]1O[C@@H](OC[C@H]2O[C@@H](Oc3cc(O)c4c(c3)O[C@H](c3ccc(O)c(O)c3)CC4=O)[C@H](O)[C@@H](O)[C@@H]2O)[C@H](O)[C@H](O)[C@H]1O [Eriocitrin] showed an inhibition at 110 µM [1] of 54% and an inhibition at 110 µM [2] of 16%.

With O=C1C[C@@H](c2ccc(O)c(O)c2)Oc2cc(O)cc(O)c21 [Eriodictyol] the inhibition at 110 µM [1] was 0% and the inhibition at 110 µM [2] was 14%.

Molecule CC1(C)CC[C@]2(CO)CC[C@]3(C)C(=CC[C@@H]4[C@@]5(C)CC[C@H](O)C(C)(C)[C@@H]5CC[C@]43C)[C@@H]2C1 [Erythrodiol] has an inhibition at 110 µM [1] of 11% and an inhibition at 110 µM [2] of 68%.

Molecule CCOC(=O)CCC(=O)O[C@H]1[C@H](O[C@@H]2[C@@H](C)[C@H](O[C@H]3C[C@@](C)(OC)[C@@H](O)[C@H](C)O3)[C@@H](C)C(=O)O[C@H](CC)[C@@](C)(O)[C@H](O)[C@@H](C)C(=O)[C@H](C)C[C@@]2(C)O)O[C@H](C)C[C@@H]1N(C)C [Erythromycin Ethylsuccinate] has an inhibition at 110 µM [1] of 24% and an inhibition at 110 µM [2] of 7%.

C/C=C(\C)C(=O)O[C@H]1[C@H](OC(C)=O)[C@]2(CO)[C@H](O)C[C@]3(C)C(=CC[C@@H]4[C@@]5(C)CC[C@H](O[C@@H]6O[C@H](C(=O)O)[C@@H](O[C@@H]7O[C@H](CO)[C@@H](O)[C@H](O)[C@H]7O)[C@H](O)[C@H]6O[C@@H]6O[C@H](CO)[C@@H](O)[C@H](O)[C@H]6O)[C@](C)(CO)[C@@H]5CC[C@]43C)[C@@H]2CC1(C)C [Escin IA] gave an inhibition at 110 µM [1] of 0% and an inhibition at 110 µM [2] of 0%.

C/C=C(/C)C(=O)O[C@H]1[C@H](OC(C)=O)[C@]2(CO)[C@H](O)C[C@]3(C)C(=CC[C@@H]4[C@@]5(C)CC[C@H](O[C@@H]6O[C@H](C(=O)O)[C@@H](O[C@@H]7O[C@H](CO)[C@@H](O)[C@H](O)[C@H]7O)[C@H](O)[C@H]6O[C@@H]6O[C@H](CO)[C@@H](O)[C@H](O)[C@H]6O)[C@](C)(CO)[C@@H]5CC[C@]43C)[C@@H]2CC1(C)C [Escin IB] showed an inhibition at 110 µM [1] of 0% and an inhibition at 110 µM [2] of 0%.

C[C@]12CC[C@@H]3c4ccc(O)cc4CC[C@H]3[C@@H]1CC[C@@H]2O [Estradiol] was tested, and the inhibition at 110 µM [1] was 1% and the inhibition at 110 µM [2] was 2%.

In the case of C[C@]12CC[C@@H]3c4ccc(O)cc4CC[C@H]3[C@@H]1C[C@@H](O)[C@@H]2O [Estriol], the inhibition at 110 µM [1] is reported as 2% and the inhibition at 110 µM [2] is reported as 10%.

Work on C[C@]12CC[C@@H]3c4ccc(O)cc4CC[C@H]3[C@@H]1CCC2=O [Estrone] yielded an inhibition at 110 µM [1] of 32% and an inhibition at 110 µM [2] of 0%.

With C#C[C@]1(O)CC[C@H]2[C@@H]3CCc4cc(O)ccc4[C@H]3CC[C@@]21C [Ethinylestradiol] the inhibition at 110 µM [1] was 33% and the inhibition at 110 µM [2] was 15%.

Molecule CCc1cc(C(N)=S)ccn1 [Ethionamide] has an inhibition at 110 µM [1] of 64% and an inhibition at 110 µM [2] of 12%.

CCOC(=O)c1ccc(O)cc1 [Ethylparaben] was tested, and the inhibition at 110 µM [1] was 32% and the inhibition at 110 µM [2] was 8%.

COc1cc([C@@H]2c3cc4c(cc3[C@@H](O[C@@H]3O[C@@H]5CO[C@@H](C)O[C@H]5[C@H](O)[C@H]3O)[C@H]3COC(=O)[C@H]23)OCO4)cc(OC)c1O [Etoposide] gave an inhibition at 110 µM [1] of 0% and an inhibition at 110 µM [2] of 4%.
